Reference: the NIST ThermoML archive (doi:10.1021/je0604479)
± gives the expanded uncertainty stated by the source.

How the values were obtained:
[1] = Liquid; for mass density: 298.15 K, 101.33 kPa
[2] = refractive index (Na D-line) (dimensionless); settings: 298.15 K; 101.33 kPa; Liquid; Standard Abbe refractometry

mass density [1] [kg/m3] | vapor or sublimation pressure ([1]; 363.16 K) [kPa] | refractive index [2] | vapor or sublimation pressure ([1]; 425.63 K) [kPa] | vapor or sublimation pressure ([1]; 369.75 K) [kPa] | SMILES
741.81 ± 0.65 | 101.3 ± 0.8 | 1.3784 ± 0.0008 | – | – | CCCOCCC [dipropyl ether]
948.72 ± 0.49 | – | 1.4265 ± 0.0008 | 101.3 ± 0.8 | – | CN(C)C=O [dimethylformamide]
799.62 ± 0.57 | – | 1.3836 ± 0.0008 | – | 101.3 ± 0.8 | CCCO [propan-1-ol]
